Experimental data published in patent US20260198495A1, “BINARY INSECTICIDE COMPOSITION AND USE THEREOF” (SHENYANG SINOCHEM AGROCHEMICALS R & D CO., LTD., priority 2022, published 2026).

Key:
Assay type in all cases: in vivo
[1] = test system: 3rd-instar larvae of Ostrinia furnacalis Guenee; experiment: Synergism screening (Bliss) of I-72 + ecdysteroid and juvenile hormone insecticides, Example 51, Table 51; conditions: Ostrinia furnacalis, 72 h, read-out: Measured mortality rate
Procedure: Test target: 3rd-instar larvae of Ostrinia furnacalis Guenee.
(§1) Preparation of the pesticide solution: according to different test requirements, the test samples were accurately weighed respectively with an electronic analytical balance. The technical pesticides were dissolved in acetone, and then diluted with 0.1% Tween 80 water into a series of pesticide solutions with a certain concentration gradient according to the experimental design dosage.
(§2) Experimental method: first, tender corn stems were selected and dipped in the prepared pesticide solution for 10 s in the order from low dosage to high dosage according to the experimental design. After natural air-drying in the shade, they were placed in a 9-cm-diameter Petri dish with filter paper, and uniform and healthy test insects were introduced, with 10 insects for each treatment and 3 replicates for each treatment. In addition, a blank control (CK) was set up.
(§3) The treated test materials were placed in an observation room, and the temperature, humidity and illumination of the observation room could be adjusted as needed. The number of dead and alive insects was investigated 72 hours later, and the corrected mortality rate was calculated using the Abbott's formula.
(§4) The synergism of the mixture was evaluated by adopting the Bliss method, as in Example 5.

Aphis craccivora nymphs = experiment: Synergism screening (Bliss) of I-72 + pyrethroid insecticides, Example 38, Table 38; conditions: for mortality at 0.15 µg/mL / mortality at 2 µg/mL / mortality at 3 µg/mL / mortality at 0.3 µg/mL / mortality at 1 µg/mL: Aphis craccivora, in Vicia faba, 48 h; for mortality at 0.15 µg/mL: read-out: Measured mortality rate (%), single pesticide, concentration 0.15 mg/L, broad bean seedling spraying; for mortality at 2 µg/mL: read-out: Measured mortality rate (%), single pesticide, concentration 2 mg/L, broad bean seedling spraying; for mortality at 3 µg/mL: read-out: Measured mortality rate (%), single pesticide, concentration 3 mg/L, broad bean seedling spraying; for Measured mortality rate (%): single pesticide, broad bean seedling spraying, 48 hours; for mortality at 0.3 µg/mL: read-out: Measured mortality rate (%), single pesticide, concentration 0.3 mg/L, broad bean seedling spraying; for mortality at 1 µg/mL: read-out: Measured mortality rate (%), single pesticide, concentration 1 mg/L, broad bean seedling spraying
Procedure: Test target: Aphis craccivora nymphs, a sensitive strain reared indoors.
as §1
Experimental method: first, broad bean seedlings with uniform and consistent Aphis craccivora were selected, with about 30-40 insects on each seedling. Then, they were evenly sprayed with the pesticide solution in the order from low dosage to high dosage according to the experimental design, with 1.5 mL of the solution for each leaf and 3 replicates for each treatment. In addition, a blank control (CK) was set up.
as §3, with “48” for “72”
as §4

[2] = test system: 2nd-instar larvae of Plutella xylostella; experiment: whole plant or invertebrate; conditions: for mortality at 0.025 µg/mL / mortality at 0.5 µg/mL / mortality at 10 µg/mL / mortality at 0.01 µg/mL / mortality at 25 µg/mL: Plutella xylostella, 72 h, read-out: Measured mortality rate; for Measured mortality rate: single pesticide, 72 hours
Procedure: (§5) Test target: 2nd-instar larvae of Plutella xylostella.
as §1
as §2, with “cabbage leaves” for “tender corn stems”
as §3
(§6) The synergism of the mixture was evaluated by the Bliss method. According to the concept of independent joint action he proposed, Bliss believes that the theoretical mortality rate P when insecticides are used in combination can be calculated by the following formula: […]
(§7) Pm is the measured mortality rate (%) of the target when the first active ingredient is at a concentration of m; and Pn is the measured mortality rate (%) of the target when the second active ingredient is used at a concentration of n.
(§8) If the actual mortality rate of the target after the two active ingredients are mixed at a certain concentration is greater than theoretical mortality rate P, it is determined that the two active ingredients have a synergistic effect when used in combination at the set concentration, and otherwise, they have an antagonistic effect.

[3] = test system: 2nd-instar larvae of Plutella xylostella; experiment: Synergism screening (Bliss) of I-72 + insect attractants and insecticides, Example 49, Table 49; conditions: for Measured mortality rate: single pesticide, 72 hours
Procedure: as §5, §1
as §2, with “cabbage leaves” for “tender corn stems”, “CK” for “(CK)”
as §3, §4

[4] = test system: 3rd-instar larvae of Yponomeuta evonymallus (Linnaeus); experiment: Synergism screening (Bliss) of I-72 + pyrethroid insecticides, Example 37, Table 37; conditions: single pesticide, leaf dipping, 72 hours
Procedure: Test target: 3rd-instar larvae of Yponomeuta evonymallus (Linnaeus).
as §1
as §2, with “method: Firstly, Hylotelephium spectabile leaves” for “method: first, tender corn stems”, “dipped into” for “dipped in”, “pesticide solutions” for “pesticide solution”
as §3, §6, §7, §8

[5] = Plutella xylostella, 72 h, read-out: Measured mortality rate

CCc1ccc(C(=O)NN(C(=O)c2cc(C)cc(C)c2)C(C)(C)C)cc1 [Tebufenozide]
mortality at 0.1 µg/mL [1]: 10.3%
mortality at 2 µg/mL [1]: 17.2%
mortality at 40 µg/mL [1]: 46.4%

Cc1c(COC(=O)[C@@H]2[C@H](/C=C(\Cl)C(F)(F)F)C2(C)C)cccc1-c1ccccc1 (racemic) [Bifenthrin]
mortality at 0.15 µg/mL (Aphis craccivora nymphs): 10%
mortality at 2 µg/mL (Aphis craccivora nymphs): 49.1%
mortality at 3 µg/mL (Aphis craccivora nymphs): 62%

O=C(NC(=O)c1c(F)cccc1F)Nc1cc(Cl)c(Oc2ncc(C(F)(F)F)cc2Cl)c(Cl)c1 [Chlorfluazuron]
mortality at 0.025 µg/mL [2]: 3.4%
mortality at 0.5 µg/mL [2]: 10.3%
mortality at 10 µg/mL [2]: 24.1%

CC12CCC(CC1=O)C2(C)C (stereo not shown) [Camphor]
mortality at 0.002 µg/mL [3, 5]: 7.4%
mortality at 0.1 µg/mL [3, 5]: 9.7%
mortality at 5 µg/mL [3, 5]: 13.8%

CC1(C)C(C=C(Cl)Cl)C1C(=O)OC(C#N)c1ccc(F)c(Oc2ccccc2)c1 (stereo not shown) [Cyfluthrin]
Measured mortality rate (%) ([4]; concentration 0.5 mg/L): 10.0%
Measured mortality rate (%) ([4]; concentration 1 mg/L): 18.8%
Measured mortality rate (%) ([4]; concentration 5 mg/L): 48.4%

CC1(C)[C@H](C=C(Cl)Cl)[C@H]1C(=O)O[C@@H](C#N)c1cccc(Oc2ccccc2)c1 [Beta-cypermethrin]
Measured mortality rate (%) (Aphis craccivora nymphs; concentration 0.3 mg/L): 16.1%
Measured mortality rate (%) (Aphis craccivora nymphs; concentration 1 mg/L): 49.7%

CCCCCCCC/C=C\CCCCCCCCCCCCC [Muscalure]
Measured mortality rate ([3]; 0.002 mg/L): 3.1%
Measured mortality rate ([3]; 0.1 mg/L): 10.0%
Measured mortality rate ([3]; 5 mg/L): 20.7%

O=C(NC(=O)c1c(F)cccc1F)Nc1cc(Cl)c(OC(F)(F)C(F)C(F)(F)F)cc1Cl (stereo not shown) [Lufenuron]
mortality at 0.025 µg/mL [2]: 7.4%
mortality at 0.5 µg/mL [2]: 12.5%
mortality at 10 µg/mL [2]: 20.7%

CON=CNC(=O)c1ccc(C2=NOC(c3cc(Cl)cc(Cl)c3)(C(F)(F)F)C2)cc1C (stereo not shown) [Fluxametamide]
Measured mortality rate ([3]; 0.01 mg/L): 6.9%
Measured mortality rate ([3]; 0.1 mg/L): 48.4%
Measured mortality rate ([3]; 1 mg/L): 75.9%

O=C(NC(=O)c1ccccc1Cl)Nc1ccc(Cl)cc1 [Chlorbenzuron]
Measured mortality rate ([2]; 0.01 mg/L): 6.5%
Measured mortality rate ([2]; 0.5 mg/L): 14.8%
Measured mortality rate ([2]; 25 mg/L): 25.8%

CC(C)C(C(=O)OC(C#N)c1cccc(Oc2ccccc2)c1)c1ccc(Cl)cc1 (stereo not shown) [Fenvalerate]
mortality at 0.3 µg/mL (Aphis craccivora nymphs): 14.7%
mortality at 1 µg/mL (Aphis craccivora nymphs): 29%
mortality at 3 µg/mL (Aphis craccivora nymphs): 51.1%

FC(F)(F)c1ccc(OCCCOc2c(Cl)cc(OCC=C(Cl)Cl)cc2Cl)nc1 [Pyridalyl]
mortality at 0.005 µg/mL [3, 5]: 8%
mortality at 0.1 µg/mL [3, 5]: 12.9%
mortality at 2 µg/mL [3, 5]: 24.1%

N#Cc1nn(-c2c(Cl)cc(C(F)(F)F)cc2Cl)c(N)c1[S+]([O-])C(F)(F)F (stereo not shown) [Fipronil]
mortality at 0.01 µg/mL [3, 5]: 6.7%
mortality at 0.1 µg/mL [3, 5]: 16.7%
mortality at 1 µg/mL [3, 5]: 27.6%

CC1(C)C(C=C(Cl)Cl)C1C(=O)OC(C#N)c1cccc(Oc2ccccc2)c1 (stereo not shown) [Zeta-cypermethrin]
Measured mortality rate (%) (Aphis craccivora nymphs; concentration 0.15 mg/L): 17.1%
Measured mortality rate (%) (Aphis craccivora nymphs; concentration 2 mg/L): 64.5%

CC1(C)C(C(=O)OC(C#N)c2cccc(Oc3ccccc3)c2)C1(C)C (stereo not shown) [Fenpropathrin]
Measured mortality rate (%) ([4]; concentration 0.5 mg/L): 13.3%
Measured mortality rate (%) ([4]; concentration 1 mg/L): 22.6%
Measured mortality rate (%) ([4]; concentration 5 mg/L): 40.7%

CC1(C)[C@H](C=C(Cl)Cl)[C@H]1C(=O)O[C@H](C#N)c1cccc(Oc2ccccc2)c1 [Theta-cypermethrin]
Measured mortality rate (%) ([4]; concentration 0.5 mg/L): 10.3%
Measured mortality rate (%) ([4]; concentration 1 mg/L): 16.7%
Measured mortality rate (%) ([4]; concentration 5 mg/L): 46.4%

CC1(C)[C@H](C(=O)O[C@H](C#N)c2cccc(Oc3ccccc3)c2)[C@@H]1/C=C(\Cl)C(F)(F)F (racemic) [Lambda-cyhalothrin]
Measured mortality rate (%) ([4]; concentration 0.25 mg/L): 16.1%
Measured mortality rate (%) ([4]; concentration 2 mg/L): 39.3%
Measured mortality rate (%) ([4]; concentration 5 mg/L): 53.3%

O=C(NC(=O)c1c(F)cccc1F)Nc1ccc(Oc2ccc(C(F)(F)F)cc2Cl)cc1F [Flufenoxuron]
mortality at 0.01 µg/mL [2]: 9.7%
mortality at 0.5 µg/mL [2]: 10.7%
mortality at 25 µg/mL [2]: 27.6%

CC1(C)[C@H](C(=O)O[C@H](C#N)c2cccc(Oc3ccccc3)c2)[C@@H]1C=C(Br)Br [Deltamethrin]
mortality at 0.3 µg/mL (Aphis craccivora nymphs): 17.3%
mortality at 1 µg/mL (Aphis craccivora nymphs): 28%
mortality at 3 µg/mL (Aphis craccivora nymphs): 61.4%

CCOc1ccc(C(C)(C)COCc2cccc(Oc3ccccc3)c2)cc1 [Etofenprox]
mortality at 0.15 µg/mL (Aphis craccivora nymphs): 14%
mortality at 2 µg/mL (Aphis craccivora nymphs): 49.5%

CC1(C)C(C=C(Cl)Cl)C1C(=O)OC(C#N)c1cccc(Oc2ccccc2)c1 (stereo not shown) [Cypermethrin]
mortality at 0.15 µg/mL (Aphis craccivora nymphs): 13.3%
mortality at 2 µg/mL (Aphis craccivora nymphs): 60.9%

CC(C)[C@H](C(=O)O[C@H](C#N)c1cccc(Oc2ccccc2)c1)c1ccc(Cl)cc1 [Esfenvalerate]
Measured mortality rate (%) ([4]; concentration 0.5 mg/L): 9.4%
Measured mortality rate (%) ([4]; concentration 1 mg/L): 13.8%
Measured mortality rate (%) ([4]; concentration 5 mg/L): 40.0%

CC1(C)[C@H](C(=O)O[C@H](C#N)c2cccc(Oc3ccccc3)c2)[C@@H]1/C=C(\Cl)C(F)(F)F [Gamma-cyhalothrin]
Measured mortality rate (%) ([4]; concentration 0.1 mg/L): 6.9%
Measured mortality rate (%) ([4]; concentration 5 mg/L): 48.3%

CC1(C)C(C=C(Cl)Cl)C1C(=O)OCc1cccc(Oc2ccccc2)c1 (stereo not shown) [Permethrin]
mortality at 0.3 µg/mL (Aphis craccivora nymphs): 12%
mortality at 1 µg/mL (Aphis craccivora nymphs): 25.3%
mortality at 3 µg/mL (Aphis craccivora nymphs): 64.8%

CC(C)c1cc(Oc2ccccc2)cc(C(C)C)c1NC(=S)NC(C)(C)C [Diafenthiuron]
mortality at 0.025 µg/mL [2]: 6.3%
mortality at 0.5 µg/mL [2]: 13.3%
mortality at 10 µg/mL [2]: 21.4%

CC1(C)C(C=C(Cl)Cl)C1C(=O)OC(C#N)c1cccc(Oc2ccccc2)c1 (stereo not drawn) [Alpha-cypermethrin]
Measured mortality rate (%) ([4]; concentration 0.5 mg/L): 9.1%
Measured mortality rate (%) ([4]; concentration 1 mg/L): 19.4%
Measured mortality rate (%) ([4]; concentration 5 mg/L): 43.8%

O=C(NC(=O)c1c(F)cccc1F)Nc1cc(Cl)c(OC(F)(F)C(F)F)c(Cl)c1 [Hexaflumuron]
mortality at 0.025 µg/mL [2]: 6.7%
mortality at 0.5 µg/mL [2]: 13.8%
mortality at 10 µg/mL [2]: 22.6%

CC1(C)C(C=C(Cl)Cl)C1C(=O)OC(C#N)c1ccc(F)c(Oc2ccccc2)c1 (stereo not drawn) [Beta-cyfluthrin]
Measured mortality rate (%) ([4]; concentration 0.5 mg/L): 12.9%
Measured mortality rate (%) ([4]; concentration 1 mg/L): 21.4%
Measured mortality rate (%) ([4]; concentration 5 mg/L): 51.6%

CCN1OCC(NC(=O)c2ccc(C3=NOC(c4cc(Cl)c(F)c(Cl)c4)(C(F)(F)F)C3)cc2C)C1=O (stereo not shown) [Isocycloseram]
Measured mortality rate ([3]; 0.01 mg/L): 17.9%
Measured mortality rate ([3]; 0.1 mg/L): 71.9%
Measured mortality rate ([3]; 1 mg/L): 80.0%

O=C(NC(=O)c1c(F)cccc1F)Nc1ccc(Cl)cc1 [Diflubenzuron]
mortality at 0.01 µg/mL [2]: 11.1%
mortality at 0.5 µg/mL [2]: 12.9%
mortality at 25 µg/mL [2]: 31%

O=C(NC(=O)c1ccccc1Cl)Nc1ccc(OC(F)(F)F)cc1 [Triflumuron]
mortality at 0.025 µg/mL [2]: 6.9%
mortality at 0.5 µg/mL [2]: 13.8%
mortality at 10 µg/mL [2]: 17.2%

Pyrethrin
Measured mortality rate (%) (Aphis craccivora nymphs; concentration 0.3 mg/L): 15.6%
Measured mortality rate (%) (Aphis craccivora nymphs; concentration 1 mg/L): 25.6%
Measured mortality rate (%) (Aphis craccivora nymphs; concentration 3 mg/L): 63.0%
